Laboratory results published in ChEMBL document CHEMBL1255496, “Pharmacokinetic-pharmacodynamic-model-guided doripenem dosing in critically ill patients” (2010).
Converted amounts (≈) assume the structure as drawn.

Legend:
Assay type in all cases: functional
[1] = system: Escherichia coli; experiment: Antimicrobial activity against Escherichia coli clinical isolates
[2] = system: Klebsiella pneumoniae; experiment: Antimicrobial activity against Klebsiella pneumoniae clinical isolates
[3] = system: Klebsiella oxytoca; experiment: Antimicrobial activity against Klebsiella oxytoca clinical isolates
[4] = system: Citrobacter freundii; experiment: Antimicrobial activity against Citrobacter freundii clinical isolates
[5] = system: Citrobacter koseri; experiment: Antimicrobial activity against Citrobacter koseri clinical isolates
[6] = system: Enterobacter cloacae; experiment: Antimicrobial activity against Enterobacter cloacae clinical isolates
[7] = system: Klebsiella aerogenes; experiment: Antimicrobial activity against Enterobacter aerogenes clinical isolates
[8] = system: Proteus mirabilis; experiment: Antimicrobial activity against Proteus mirabilis clinical isolates
[9] = system: Morganella morganii; experiment: Antimicrobial activity against Morganella morganii clinical isolates
[10] = system: Serratia marcescens; experiment: Antimicrobial activity against Serratia marcescens clinical isolates
[11] = system: Pseudomonas aeruginosa; experiment: Antimicrobial activity against Pseudomonas aeruginosa clinical isolates
[12] = system: Acinetobacter sp.; experiment: Antimicrobial activity against Acinetobacter sp. clinical isolates
[13] = system: Acinetobacter baumannii; experiment: Antimicrobial activity against Acinetobacter baumannii clinical isolates
[14] = system: Burkholderia cepacia; experiment: Antimicrobial activity against Burkholderia cepacia clinical isolates
[15] = system: Stenotrophomonas maltophilia; experiment: Antimicrobial activity against Stenotrophomonas maltophilia clinical isolates
[16] = system: Haemophilus sp.; experiment: Antimicrobial activity against Haemophilus sp. clinical isolates
[17] = system: Enterococcus sp.; experiment: Antimicrobial activity against Enterococcus sp. clinical isolates
[18] = system: Enterococcus faecalis; experiment: Antimicrobial activity against Enterococcus faecalis clinical isolates
[19] = system: Staphylococcus sp.; experiment: Antimicrobial activity against Staphylococcus sp. clinical isolates
[20] = system: Staphylococcus aureus; experiment: Antimicrobial activity against Staphylococcus aureus clinical isolates
[21] = system: Staphylococcus aureus; experiment: Antimicrobial activity against oxacillin-susceptible Staphylococcus aureus clinical isolates
[22] = system: Staphylococcus sp.; experiment: Antimicrobial activity against Coagulase-negative Staphylococcus sp. clinical isolates
[23] = system: Staphylococcus sp.; experiment: Antimicrobial activity against Coagulase-negative oxacillin-susceptible Staphylococcus sp. clinical isolates
[24] = system: Streptococcus pneumoniae; experiment: Antimicrobial activity against Streptococcus pneumoniae clinical isolates
[25] = system: Streptococcus sp.; experiment: Antimicrobial activity against Streptococcus sp. clinical isolates
[26] = system: Enterococcus faecalis; experiment: Antimicrobial activity against Enterococcus faecalis clinical isolate obtained from critically ill patients
[27] = system: Streptococcus pneumoniae; experiment: Antimicrobial activity against Streptococcus pneumoniae clinical isolate obtained from critically ill patients
[28] = system: Staphylococcus aureus; experiment: Antimicrobial activity against methicillin-susceptible Staphylococcus aureus clinical isolate obtained from critically ill patients
[29] = system: Staphylococcus aureus; experiment: Antimicrobial activity against methicillin-resistant Staphylococcus aureus clinical isolate obtained from critically ill patients
[30] = system: Acinetobacter sp.; experiment: Antimicrobial activity against Acinetobacter sp. clinical isolate obtained from critically ill patients
[31] = system: Enterobacter cloacae; experiment: Antimicrobial activity against Enterobacter cloacae clinical isolate obtained from critically ill patients
[32] = system: Escherichia coli; experiment: Antimicrobial activity against Escherichia coli clinical isolate obtained from critically ill patients
[33] = system: Klebsiella pneumoniae; experiment: Antimicrobial activity against Klebsiella pneumoniae clinical isolate obtained from critically ill patients
[34] = system: Haemophilus influenzae; experiment: Antimicrobial activity against Haemophilus influenzae clinical isolate obtained from critically ill patients
[35] = system: Proteus mirabilis; experiment: Antimicrobial activity against Proteus mirabilis clinical isolate obtained from critically ill patients
[36] = system: Pseudomonas aeruginosa; experiment: Antimicrobial activity against Pseudomonas aeruginosa clinical isolate obtained from critically ill patients
[37] = system: Enterobacteriaceae; experiment: Antimicrobial activity against Enterobacteriaceae clinical isolates
[38] = T>MIC in bacilli infected patients with moderate renal impairment at 250 mg administered as 1 hr infusion every 8 hrs
[39] = T>MIC in bacilli infected patients with severe renal impairment at 250 mg administered as 4 hrs infusion every 12 hrs
[40] = T>MIC in bacilli infected patients with renal impairment at 500 mg administered as 1 hr infusion every 8 hrs

C[C@@H](O)[C@H]1C(=O)N2C(C(=O)O)=C(S[C@@H]3CN[C@H](CNS(N)(=O)=O)C3)[C@H](C)[C@H]12 [DORIPENEM]
MIC [1]: ≤ 0.03 µg/mL | MIC50 [1]: ≤ 0.03 µg/mL | MIC90 [1]: 0.03 µg/mL (≈ 0.0713 µM) | MIC50 [2]: 0.06 µg/mL (≈ 0.143 µM) | MIC90 [2]: 0.12 µg/mL (≈ 0.285 µM) | MIC50 [3]: 0.06 µg/mL (≈ 0.143 µM) | MIC90 [3]: 0.06 µg/mL (≈ 0.143 µM) | MIC [4]: ≤ 0.03 µg/mL | MIC50 [4]: ≤ 0.03 µg/mL | MIC90 [4]: 0.06 µg/mL (≈ 0.143 µM) | MIC [5]: ≤ 0.03 µg/mL | MIC50 [5]: ≤ 0.03 µg/mL | MIC90 [5]: 0.06 µg/mL (≈ 0.143 µM) | MIC50 [6]: 0.06 µg/mL (≈ 0.143 µM) | MIC90 [6]: 0.5 µg/mL (≈ 1.19 µM) | MIC50 [7]: 0.06 µg/mL (≈ 0.143 µM) | MIC90 [7]: 0.12 µg/mL (≈ 0.285 µM) | MIC50 [8]: 0.25 µg/mL (≈ 0.595 µM) | MIC90 [8]: 0.5 µg/mL (≈ 1.19 µM) | MIC50 [9]: 0.25 µg/mL (≈ 0.595 µM) | MIC90 [9]: 1 µg/mL (≈ 2.38 µM) | MIC50 [10]: 0.12 µg/mL (≈ 0.285 µM) | MIC90 [10]: 0.25 µg/mL (≈ 0.595 µM) | MIC50 [11]: 0.5 µg/mL (≈ 1.19 µM) | MIC90 [11]: 4 µg/mL (≈ 9.51 µM) | MIC50 [12]: 0.5 µg/mL (≈ 1.19 µM) | MIC90 [12]: 32 µg/mL (≈ 76.1 µM) | MIC50 [13]: 1 µg/mL (≈ 2.38 µM) | MIC90 [13]: 32 µg/mL (≈ 76.1 µM) | MIC [14]: 2 µg/mL (≈ 4.76 µM) | MIC50 [15]: 64 µg/mL (≈ 152 µM) | MIC90 [15]: > 128 µg/mL | MIC50 [16]: 0.06 µg/mL (≈ 0.143 µM) | MIC90 [16]: 0.25 µg/mL (≈ 0.595 µM) | MIC50 [17]: 4 µg/mL (≈ 9.51 µM) | MIC90 [17]: 32 µg/mL (≈ 76.1 µM) | MIC50 [18]: 4 µg/mL (≈ 9.51 µM) | MIC90 [18]: 4 µg/mL (≈ 9.51 µM) | MIC50 [19]: ≤ 0.03 µg/mL | MIC90 [19]: 16 µg/mL (≈ 38 µM) | MIC50 [20]: ≤ 0.03 µg/mL | MIC90 [20]: 16 µg/mL (≈ 38 µM) | MIC [21]: ≤ 0.03 µg/mL | MIC50 [21]: ≤ 0.03 µg/mL | MIC90 [21]: 0.06 µg/mL (≈ 0.143 µM) | MIC50 [22]: 0.06 µg/mL (≈ 0.143 µM) | MIC90 [22]: 16 µg/mL (≈ 38 µM) | MIC [23]: ≤ 0.03 µg/mL | MIC50 [23]: ≤ 0.03 µg/mL | MIC90 [23]: 0.25 µg/mL (≈ 0.595 µM) | MIC [24]: ≤ 0.03 µg/mL | MIC50 [24]: ≤ 0.03 µg/mL | MIC90 [24]: 0.5 µg/mL (≈ 1.19 µM) | MIC [25]: ≤ 0.03 µg/mL | MIC50 [25]: ≤ 0.03 µg/mL | MIC90 [25]: 0.06 µg/mL (≈ 0.143 µM) | MIC50 [26]: 4 µg/mL (≈ 9.51 µM) | MIC90 [26]: 4 µg/mL (≈ 9.51 µM) | MIC [27]: ≤ 0.015 µg/mL | MIC50 [27]: ≤ 0.015 µg/mL | MIC90 [27]: 0.5 µg/mL (≈ 1.19 µM) | MIC50 [28]: 0.03 µg/mL (≈ 0.0713 µM) | MIC90 [28]: 0.06 µg/mL (≈ 0.143 µM) | MIC50 [29]: 1 µg/mL (≈ 2.38 µM) | MIC90 [29]: 16 µg/mL (≈ 38 µM) | MIC50 [30]: 16 µg/mL (≈ 38 µM) | MIC90 [30]: > 32 µg/mL | MIC50 [31]: 0.06 µg/mL (≈ 0.143 µM) | MIC90 [31]: 0.12 µg/mL (≈ 0.285 µM) | MIC50 [32]: 0.03 µg/mL (≈ 0.0713 µM) | MIC90 [32]: 0.06 µg/mL (≈ 0.143 µM) | MIC50 [33]: 0.06 µg/mL (≈ 0.143 µM) | MIC90 [33]: 0.25 µg/mL (≈ 0.595 µM) | MIC50 [34]: 0.12 µg/mL (≈ 0.285 µM) | MIC90 [34]: 0.5 µg/mL (≈ 1.19 µM) | MIC50 [35]: 0.25 µg/mL (≈ 0.595 µM) | MIC90 [35]: 1 µg/mL (≈ 2.38 µM) | MIC50 [36]: 0.5 µg/mL (≈ 1.19 µM) | MIC90 [36]: 8 µg/mL (≈ 19 µM) | MIC [37]: ≤ 0.03 µg/mL | MIC50 [37]: ≤ 0.03 µg/mL | MIC90 [37]: 0.12 µg/mL (≈ 0.285 µM) | fT>MIC [38]: 35% | fT>MIC [39]: 35% | fT>MIC [40]: 35%
